{
  "source": "patent US4603145A",
  "about": "“Antiatherosclerotic diphenyl alkanamides” (American Cyanamid Company, priority 1983, dated 1986)",
  "data": [
    {"biological_target": "T1, fatty acyl CoA:cholesterol acyl transferase (ACAT) (Rattus norvegicus, UniProt O70536)", "T1 construct": "The supernatant, containing the microsomal fraction, served as the source of the cholesterol-esterifying enzyme; from tissue; host or cells: rat adrenals (supernatant of homogenate, 1,000 x g, containing the microsomal fraction)", "T1 sequence (O70536 1-545)": "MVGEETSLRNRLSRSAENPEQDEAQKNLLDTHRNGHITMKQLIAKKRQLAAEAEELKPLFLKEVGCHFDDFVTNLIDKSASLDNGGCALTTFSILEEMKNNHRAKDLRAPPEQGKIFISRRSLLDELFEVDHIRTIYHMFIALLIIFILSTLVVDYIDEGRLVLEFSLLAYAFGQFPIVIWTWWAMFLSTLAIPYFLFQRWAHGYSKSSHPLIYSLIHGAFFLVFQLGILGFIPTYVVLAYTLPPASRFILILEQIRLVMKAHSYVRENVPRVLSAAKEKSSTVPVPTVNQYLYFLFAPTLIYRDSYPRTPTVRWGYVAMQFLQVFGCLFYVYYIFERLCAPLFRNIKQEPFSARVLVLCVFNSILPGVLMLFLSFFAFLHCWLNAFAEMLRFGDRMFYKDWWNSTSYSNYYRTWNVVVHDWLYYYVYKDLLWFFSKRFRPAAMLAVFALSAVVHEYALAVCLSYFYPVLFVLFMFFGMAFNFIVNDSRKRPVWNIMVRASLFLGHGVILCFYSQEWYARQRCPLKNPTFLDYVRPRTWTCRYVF", "assay": "Inhibition of enzymatic esterification of cholesterol (ACAT), rat adrenal microsomal supernatant", "format": "biochemical", "conditions": "final concentration of the test compound 5.2 μg./ml., 14C-oleoyl CoA, 37° C., read-out: % INHIBITION (percent inhibition of the ACAT enzyme compared to control values)", "procedure": "The compounds of the present invention were tested for their ability to inhibit the enzymatic esterification of cholesterol according to the following procedure:\nRat adrenals were homogenized in 0.2M monobasic potassium phosphate buffer, pH 7.4, and centrifuged at 1,000 times gravity for 15 minutes at 5° C. The supernatant, containing the microsomal fraction, served as the source of the cholesterol-esterifying enzyme, fatty acyl CoA:cholesterol acyl transferase (ACAT). A mixture comprising 50 parts of adrenal supernatant, 10 parts of albumin (BSA) (50 mg./ml.), 20 parts of oleoyl CoA (^14 C-0.4 μCi), 3 parts of test compound, and 500 parts of buffer was pre-incubated at 37° C. for 10 minutes. After treatment with 20 parts of oleoyl CoA (^14 C-0.4 μCi), the mixture was incubated at 37° C. for 10 minutes. A control mixture, omitting the test compound, was prepared and treated in the same manner. The lipids from the incubation mixture were extracted into an organic solvent and separated by thin-layer chromatography. The cholesterol ester fraction was counted in a scintillation counter. This procedure is a modification of that described by Hashimoto, et al., Life Scie., 12 (Part II), 1-12 (1973).\nThe results of this test on representative compounds of this invention appear in Table I. The final concentration of the test compound was 5.2 μg./ml., and effectiveness of the compound is expressed as percent inhibition of the ACAT enzyme compared to control values.", "units": {"inhibition at 5.2 µg/mL": "%"}, "values": [
      {"smiles": "NC(=O)CC(c1ccc(Cl)cc1)c1ccc(Cl)cc1", "note": "[3,3-Bis(p-chlorophenyl)propionamide]", "inhibition at 5.2 µg/mL": 31},
      {"smiles": "CCOC(=O)CNC(=O)C=C(c1ccc(Cl)cc1)c1ccc(Cl)cc1", "note": "[Ethyl N-[3,3-bis(p-chlorophenyl)acryloyl]glycinate]", "inhibition at 5.2 µg/mL": 85},
      {"smiles": "CCCCN(CCCC)C(=O)CC(c1ccc(Cl)cc1)c1ccc(Cl)cc1", "note": "[N,N--Di-(n-butyl)-3,3-bis(p-chlorophenyl)propionamide]", "inhibition at 5.2 µg/mL": 48},
      {"smiles": "CCCCN(CCCC)C(=O)CC(c1ccc(OC)cc1)c1ccc(OC)cc1", "note": "[N,N--Di-(n-butyl)-3,3-bis(p-methoxyphenyl)propionamide]", "inhibition at 5.2 µg/mL": 95},
      {"smiles": "CCCCN(CCCC)C(=O)CC(c1ccc(C)cc1)c1ccc(C)cc1", "note": "[N,N--Di-(n-butyl)-3,3-bis(p-tolyl)propionamide]", "inhibition at 5.2 µg/mL": 94},
      {"smiles": "O=C(CC(c1ccc(Cl)cc1)c1ccc(Cl)cc1)N(Cc1ccccc1)Cc1ccccc1", "note": "[N,N--Dibenzyl-3,3-bis(p-chlorophenyl)propionamide]", "inhibition at 5.2 µg/mL": 93},
      {"smiles": "COc1ccc(C(CC(=O)N(Cc2ccccc2)Cc2ccccc2)c2ccc(OC)cc2)cc1", "note": "[N,N--Dibenzyl-3,3-bis(p-methoxyphenyl)propionamide]", "inhibition at 5.2 µg/mL": 87},
      {"smiles": "Cc1ccc(C(CC(=O)N(Cc2ccccc2)Cc2ccccc2)c2ccc(C)cc2)cc1", "note": "[N,N--Dibenzyl-3,3-bis(p-tolyl)propionamide]", "inhibition at 5.2 µg/mL": 68},
      {"smiles": "CN(C)C(=O)CC(c1ccc(Cl)cc1)c1ccc(Cl)cc1", "note": "[N,N--Dimethyl-3,3-bis(p-chlorophenyl)propionamide]", "inhibition at 5.2 µg/mL": 68},
      {"smiles": "O=C(CC(c1ccc(Cl)cc1)c1ccc(Cl)cc1)NC12CC3CC(CC(C3)C1)C2", "note": "[N--(1-Adamantyl)-3,3-bis(p-chlorophenyl)propionamide]", "inhibition at 5.2 µg/mL": 97},
      {"smiles": "COc1ccc(C(CC(=O)NC23CC4CC(CC(C4)C2)C3)c2ccc(OC)cc2)cc1", "note": "[N--(1-Adamantyl)-3,3-bis(p-methoxyphenyl)propionamide]", "inhibition at 5.2 µg/mL": 89},
      {"smiles": "Cc1ccc(C(CC(=O)NC23CC4CC(CC(C4)C2)C3)c2ccc(C)cc2)cc1", "note": "[N--(1-Adamantyl)-3,3-bis(p-tolyl)propionamide]", "inhibition at 5.2 µg/mL": 76},
      {"smiles": "CCCCNC(=O)CC(c1ccc(Cl)cc1)c1ccc(Cl)cc1", "note": "[N--(n-Butyl)-3,3-bis(p-chlorophenyl)propionamide]", "inhibition at 5.2 µg/mL": 92},
      {"smiles": "O=C(CC(c1ccc(Cl)cc1)c1ccc(Cl)cc1)NCc1ccccc1", "note": "[N--Benzyl-3,3-bis(p-chlorophenyl)propionamide]", "inhibition at 5.2 µg/mL": 35},
      {"smiles": "CCCCN(Cc1ccccc1)C(=O)CC(c1ccc(Cl)cc1)c1ccc(Cl)cc1", "note": "[N--Benzyl-N--(n-butyl)-3,3-bis(p-chlorophenyl)propionamide]", "inhibition at 5.2 µg/mL": 45},
      {"smiles": "COc1ccc(C(CC(=O)NCCc2ccc(OC)c(OC)c2)c2ccc(OC)cc2)cc1", "note": "[N--[2-(3,4-Dimethoxyphenyl)ethyl]-3,3-bis(p-methoxyphenyl)propionamide]", "inhibition at 5.2 µg/mL": 78}
    ]}
  ]
}
